Source: US20130029964A1, “[5, 6] HETEROCYCLIC COMPOUND” (DAIICHI SANKYO COMPANY, LIMITED, priority 2010, published 2013)

Test system: ST2 cells, murine bone marrow-derived stromal cells
Assay: Osteoblast differentiation test (ALP activity)
Assay type: cell-based
Details: Mus musculus, ST-2, 96 h, at 0.1 μg/mL, control group (0.1% DMSO) = 100%, four days of culturing, read-out: alkaline phosphatase activity
Procedure: ST2 cells, murine bone marrow-derived stromal cells, (obtained from RIKEN) were used.
In this test, α-MEM media (obtained from GIBCO BRL Cat. No. 10370-021) containing 10% (v/v) of inactivated calf serum (obtained from Hyclone Laboratories, Inc.) and 1% (v/v) of Penicillin-Streptomycin Liquid (obtained from GIBCO BRL Cat. No. 15140-122) (hereinbelow, abbreviated as 10%-FBS-αMEM) were used. In this test, all culturing was performed in a CO2 incubator (37° C., 95% humidity, 5% CO2).
The aforementioned cells were detached with 2 mL of a 0.25% trypsin solution (obtained from GIBCO BRL Cat. No. 15050-065) and dispersed in 10 mL of 10%-FBS-αMEM. Subsequently, the cells were collected by centrifugation (25° C., 800 rpm, five minutes). Then, a cell suspension containing 40000 of the cells/mL of 10%-FBS-αMEM was prepared. The cell suspension was then dispensed into 96-well plates (the product of Falcon), 100 μL per well, at a density of 4000 cells/well, followed by culturing for 24 hours. To the wells, except for the below-described well containing a control group, the compound was dispensed at final concentrations of 0.01, 0.03, 0.1, and 0.3 μg/ml. To the well of a control group, DMSO was dispensed at a final concentration of 0.1% (v/v). After four days of culturing, the activity of alkaline phosphatase (ALP) was measured in each group.
The measurement of ALP activity was performed as follows. That is, the medium in each well of the culture plates was completely removed. Each well was then washed by dispensing 100 μL of Dulbecco's phosphate buffer (obtained from GIBCO BRL Cat. No. 14190-144) and then removing it. A cell lysate solution containing 10 mM MgCl2 and 2% (v/v) TritonX-100 (Sigma) was prepared and dispensed at 50 μL/well, followed by stirring at room temperature for five minutes. An ALP substrate solution containing 50 mM diethanolamine (Wako Pure Chemical Industries, Ltd., Cat. No. 099-03112) and 20 mM p-nitrophenyl phosphate (Wako Pure Chemical Industries, Ltd., Cat. No. 147-02343) was prepared and dispensed at 50 μL/well, and the plates were left to stand at room temperature for 10 minutes. Subsequently, absorbance was measured by a microplate reader (Bio-Rad Laboratories, Inc.). Setting the measurement value of the control group of each plate at 100%, alkaline phosphatase activity (increase (%)) in the test compound-addition group was calculated, which was assessed as the degree of osteoblast differentiation.

Structure (SMILES) | activity at 0.1 µg/mL
c1coc(-c2ccc3ncc(-c4ccc(OCCOC5CCOCC5)cc4)n3c2)n1 [Example 150] | ≥ 200%
OCCOc1ccc(-n2cnc3cc(-c4cncnc4)ccc32)cc1 [Example 38] | ≥ 200%
OCCOCCNc1ccc(-n2cnc3ccccc32)cc1 [Example 3, 2-(2-{[4-(1H-Benzimidazol-1-yl)phenyl]amino}ethoxy)ethanol] | ≥ 200%
N#Cc1ccn2c(-c3ccc(OCCO)cc3)cnc2c1 [Example 75] | ≥ 200%
N#Cc1ccc2ncc(-c3ccc(OCCOC4CCOCC4)cc3)n2c1 [Example 148] | ≥ 200%
CCOc1ccc2c(c1)ncn2-c1ccc(OCCO)cc1 [Example 30] | ≥ 200%
Clc1ccn2c(N3CCC(OCCOC4CCOCC4)CC3)cnc2c1 [Example 139] | ≥ 200%
CS(=O)(=O)Nc1ccc(-c2ccc3c(c2)ncn3-c2ccc(OCCO)cc2)cc1 [Example 53] | ≥ 200%
c1ccc2c(c1)ncn2-c1ccc(NCCOC2CCOCC2)cc1 [Example 101] | ≥ 200%
OCCOc1ccc(-n2cnc3cc(-c4cn[nH]c4)ccc32)cc1 [Example 54] | ≥ 200%
N#Cc1ccc(-c2ccc3c(c2)ncn3-c2ccc(OCCO)cc2)cc1 [Example 51] | ≥ 200%
O=C(c1ccc(-c2ccn3c(N4CCC(OCCO)CC4)cnc3c2)cc1)N1CCOCC1 [Example 103] | ≥ 200%
